{"source": "patent US10584124B2", "about": "“Crystalline forms” (Array BioPharma Inc., priority 2017, dated 2020)", "key": {"[1]": {"experiment": "Second solubility study of the L-malic acid salt at elevated temperatures (60° C., 70° C.)", "type": "physicochemical", "conditions": "for Solids dissolve at 70° C.?: 70° C. for approximately 3.0 hours"}, "[2]": {"experiment": "Stability screening of freebase and selected salts of Formula I, 40° C. and 75% RH, weekly HPLC over 4 weeks"}, "[3]": {"experiment": "Isothermic (25° C.) DVS analysis of salts of the compound of Formula I", "type": "physicochemical", "description": "(FIG. 16D). […] Some hysteresis was observed. […] (FIG. 16C). […] (FIG. 16D).\n(FIG. 18A). […] (FIG. 18B). […] Some hysteresis was observed. […] An overlay of FTIR spectra of the L- and D-malic acid salts is shown in FIG. 18F. ^1H NMR spectra of the L- and D-malic salts in DMSO-d^6 are shown in FIG. 18G-18H, respectively."}, "[4]": {"experiment": "Solubility test of the L-malic acid salt at room temperature", "type": "physicochemical", "conditions": "DMSO, two lots"}, "[5]": {"experiment": "Solvent solubility screen of the compound of Formula II", "type": "physicochemical", "conditions": "40 °C, thermodynamic from solid, read-out: Approximate solubility", "method": "A solvent solubility screen was conducted in 32 solvent systems as follows.\nBetween each addition, the mixture was checked for dissolution. If no dissolution was apparent, the mixture was heated to around 40° C. and checked again. This procedure was continued until dissolution was observed or until 100 volumes of solvent had been added. Undissolved material from the solubility screen was isolated and analyzed by XRPD."}, "[6]": {"experiment": "Dynamic vapor sorption (DVS) of the compound of Formula II", "type": "physicochemical", "method": "Approximately 10 mg of sample was placed into a mesh vapor sorption balance pan and loaded into a DVS-1 dynamic vapor sorption balance by Surface Measurement Systems. The sample was subjected to a ramping profile from 40-90% relative humidity (RH) at 10% increments, maintaining the sample at each step until a stable weight had been achieved (99.5% step completion). After completion of the sorption cycle, the sample was dried using the same procedure to 0% RH and then a second sorption cycle back to 40% RH. The weight change during the sorption/desorption cycles were plotted, allowing for the hygroscopic nature of the sample to be determined. XRPD analysis was then carried out on any solid retained.\nThe material appeared highly crystalline by XRPD (FIG. 62A). […] This event was followed by thermal degradation. […] (FIG. 62B)."}}, "data": [{"smiles": "COc1ccc(CN2CCN(c3ccc(-c4cc(-c5cnn(C)c5)cn5ncc(C#N)c45)cn3)CC2)cn1.O=C(O)C[C@H](O)C(=O)O", "note": "[L-malic acid salt]", "values": [{"measurement": "Solids dissolve at 60° C.?", "setting": "[1]; 60° C. for 3.0 hours, solvent 0.1M HCl, Yes", "result": "Yes (>13.4 mg/mL)"}, {"measurement": "Solids dissolve at 60° C.?", "setting": "[1]; 60° C. for 3.0 hours, solvent 2-methyl THF", "result": "No"}, {"measurement": "Solids dissolve at 60° C.?", "setting": "[1]; 60° C. for 3.0 hours, solvent ACN", "result": "No"}, {"measurement": "Solids dissolve at 60° C.?", "setting": "[1]; 60° C. for 3.0 hours, solvent Acetone", "result": "No"}, {"measurement": "Solids dissolve at 60° C.?", "setting": "[1]; 60° C. for 3.0 hours, solvent DCE", "result": "No"}, {"measurement": "Solids dissolve at 60° C.?", "setting": "[1]; 60° C. for 3.0 hours, solvent DMSO, Yes", "result": "Yes (>36 mg/mL)"}, {"measurement": "Solids dissolve at 60° C.?", "setting": "[1]; 60° C. for 3.0 hours, solvent EtOAc", "result": "No"}, {"measurement": "Solids dissolve at 60° C.?", "setting": "[1]; 60° C. for 3.0 hours, solvent EtOH", "result": "No"}, {"measurement": "Solids dissolve at 60° C.?", "setting": "[1]; 60° C. for 3.0 hours, solvent IPA", "result": "No"}, {"measurement": "Solids dissolve at 60° C.?", "setting": "[1]; 60° C. for 3.0 hours, solvent MEK", "result": "No"}, {"measurement": "Solids dissolve at 60° C.?", "setting": "[1]; 60° C. for 3.0 hours, solvent MTBE", "result": "No"}, {"measurement": "Solids dissolve at 60° C.?", "setting": "[1]; 60° C. for 3.0 hours, solvent MeOH", "result": "No"}, {"measurement": "Solids dissolve at 60° C.?", "setting": "[1]; 60° C. for 3.0 hours, solvent Toluene", "result": "No"}, {"measurement": "Solids dissolve at 60° C.?", "setting": "[1]; 60° C. for 3.0 hours, solvent iPAc", "result": "No"}, {"measurement": "Solids dissolve at 60° C.?", "setting": "[1]; 60° C. for 3.0 hours, solvent water", "result": "No"}, {"measurement": "Solids dissolve at 70° C.?", "setting": "[1]; solvent 2-methyl THF", "result": "No"}, {"measurement": "Solids dissolve at 70° C.?", "setting": "[1]; solvent ACN", "result": "No"}, {"measurement": "Solids dissolve at 70° C.?", "setting": "[1]; solvent DCE", "result": "No"}, {"measurement": "Solids dissolve at 70° C.?", "setting": "[1]; solvent DMSO, Yes", "result": "Yes (>56 mg/mL)"}, {"measurement": "Solids dissolve at 70° C.?", "setting": "[1]; solvent EtOAc", "result": "No"}, {"measurement": "Solids dissolve at 70° C.?", "setting": "[1]; solvent EtOH", "result": "No"}, {"measurement": "Solids dissolve at 70° C.?", "setting": "[1]; solvent IPA", "result": "No"}, {"measurement": "Solids dissolve at 70° C.?", "setting": "[1]; solvent MEK", "result": "No"}, {"measurement": "Solids dissolve at 70° C.?", "setting": "[1]; solvent MTBE", "result": "No"}, {"measurement": "Solids dissolve at 70° C.?", "setting": "[1]; solvent Toluene", "result": "No"}, {"measurement": "Solids dissolve at 70° C.?", "setting": "[1]; solvent iPAc", "result": "No"}, {"measurement": "Solids dissolve at 70° C.?", "setting": "[1]; solvent water", "result": "No"}, {"measurement": "Solids dissolve at 60° C.?", "setting": "[1]; solvent THF, cell says 65° C.", "result": "~65", "unit": "°C almost 12.3 mg/mL"}, {"measurement": "Absolute % change", "setting": "[2]; 40° C. and 75% RH, T = 0 to 4 weeks", "result": 0.5, "unit": "%"}, {"measurement": "Stability, HPLC analysis, T = 1 week", "setting": "[2]; stored at 40° C. and 75% RH, 1 week", "result": 97.7, "unit": "%"}, {"measurement": "Stability, HPLC analysis, T = 2 weeks", "setting": "[2]; stored at 40° C. and 75% RH, 2 weeks", "result": 97.4, "unit": "%"}, {"measurement": "Stability, HPLC analysis, T = 3 weeks", "setting": "[2]; stored at 40° C. and 75% RH, 3 weeks", "result": 97.4, "unit": "%"}, {"measurement": "Stability, HPLC analysis, T = 4 weeks", "setting": "[2]; stored at 40° C. and 75% RH, 4 weeks", "result": 97.3, "unit": "%"}, {"measurement": "Stability, HPLC analysis, T = 0", "setting": "[2]; stored at 40° C. and 75% RH, T = 0", "result": 97.8, "unit": "%"}, {"measurement": "Mass gain by DVS", "setting": "[3]; 80% relative humidity, 25° C.", "result": "approximately 2.8%"}, {"measurement": "Hygroscopicity by DVS (in words)", "setting": "[3]; isothermic 25° C.", "result": "hygroscopic"}, {"measurement": "Deliquescence upon removal from the DVS chamber", "setting": "[3]; sample remained a free-flowing powder", "result": "no observable deliquescence"}, {"measurement": "solubility", "setting": "[4]", "result": "14000 to 15000", "unit": "µg/mL"}]}, {"smiles": "COc1ccc(CN2C3CC2CN(c2ccc(-c4cc(OCC(C)(C)O)cn5ncc(C#N)c45)cn2)C3)cn1", "note": "[compound of Formula II, 6-(2-hydroxy-2-methylpropoxy)-4-(6-(6-((6-methoxypyridin-3-yl)methyl)-3,6-diazabicyclo[3.1.1]heptan-3-yl)pyridin-3-yl)pyrazolo[1,5-a]pyridine-3-carbonitrile]", "values": [{"measurement": "solubility", "setting": "[5]; 1-Butanol, organic solvent or mixture", "result": "< 5000", "unit": "µg/mL"}, {"measurement": "solubility", "setting": "[5]; 1-Propanol, organic solvent or mixture", "result": "< 5000", "unit": "µg/mL"}, {"measurement": "solubility", "setting": "[5]; organic solvent or mixture, 1,4-Dioxane, (P) partial solubility at 100 volumes", "result": "< 5000", "unit": "µg/mL"}, {"measurement": "solubility", "setting": "[5]; organic solvent or mixture, 2-Ethoxyethanol, (P) partial solubility at 100 volumes", "result": "< 5000", "unit": "µg/mL"}, {"measurement": "solubility", "setting": "[5]; organic solvent or mixture, 2-Methyl THF, (P) partial solubility at 100 volumes", "result": "< 5000", "unit": "µg/mL"}, {"measurement": "solubility", "setting": "[5]; organic solvent or mixture, Anisole, (P) partial solubility at 100 volumes", "result": "< 5000", "unit": "µg/mL"}, {"measurement": "solubility", "setting": "[5]; organic solvent or mixture, CHCl3, (P) partial solubility at 100 volumes", "result": "< 5000", "unit": "µg/mL"}, {"measurement": "solubility", "setting": "[5]; organic solvent or mixture, Cyclohexanone, (P) partial solubility at 100 volumes", "result": "< 5000", "unit": "µg/mL"}, {"measurement": "solubility", "setting": "[5]; organic solvent or mixture, DCM, (P) partial solubility at 100 volumes", "result": "< 5000", "unit": "µg/mL"}, {"measurement": "solubility", "setting": "[5]; organic solvent or mixture, Nitromethane, (P) partial solubility at 100 volumes", "result": "< 5000", "unit": "µg/mL"}, {"measurement": "solubility", "setting": "[5]; organic solvent or mixture, THF, (P) partial solubility at 100 volumes", "result": "< 5000", "unit": "µg/mL"}, {"measurement": "solubility", "setting": "[5]; Acetone, organic solvent or mixture", "result": "< 5000", "unit": "µg/mL"}, {"measurement": "solubility", "setting": "[5]; Acetone:Water (50%), aqueous with cosolvent or surfactant or cyclodextrin", "result": "< 5000", "unit": "µg/mL"}, {"measurement": "solubility", "setting": "[5]; Cyclohexane, organic solvent or mixture", "result": "< 5000", "unit": "µg/mL"}, {"measurement": "solubility", "setting": "[5]; DMSO, organic solvent or mixture", "result": 41000, "unit": "µg/mL"}, {"measurement": "solubility", "setting": "[5]; EtOAc, organic solvent or mixture", "result": "< 5000", "unit": "µg/mL"}, {"measurement": "solubility", "setting": "[5]; Ethanol, organic solvent or mixture", "result": "< 5000", "unit": "µg/mL"}, {"measurement": "solubility", "setting": "[5]; IPA, organic solvent or mixture", "result": "< 5000", "unit": "µg/mL"}, {"measurement": "solubility", "setting": "[5]; MEK, organic solvent or mixture", "result": "< 5000", "unit": "µg/mL"}, {"measurement": "solubility", "setting": "[5]; MIBK, organic solvent or mixture", "result": "< 5000", "unit": "µg/mL"}, {"measurement": "solubility", "setting": "[5]; MeCN:Water (20%), aqueous with cosolvent or surfactant or cyclodextrin", "result": 5000, "unit": "µg/mL"}, {"measurement": "solubility", "setting": "[5]; MeOAc, organic solvent or mixture", "result": "< 5000", "unit": "µg/mL"}, {"measurement": "solubility", "setting": "[5]; NMP, organic solvent or mixture", "result": 17000, "unit": "µg/mL"}, {"measurement": "solubility", "setting": "[5]; THF:Water (1%), organic solvent or mixture", "result": 48000, "unit": "µg/mL"}, {"measurement": "solubility", "setting": "[5]; Water, water", "result": "< 5000", "unit": "µg/mL"}, {"measurement": "Hygroscopicity by DVS (in words)", "setting": "[6]", "result": "moderately hygroscopic"}, {"measurement": "Weight increase by DVS", "setting": "[6]; 90% RH", "result": "around 3.6%"}, {"measurement": "Change in Form post-DVS", "setting": "[6]; XRPD after DVS", "result": "No change in Form"}]}]}
